Numbered stars: 1 amine (or outer) side, 2 acyl side, 3 side chain; on linkers, the order of the positions; unused ones are H or OH. Bridge positions count the residues as written; N and C are the ends. Square brackets hold non-standard residues; d marks the D form. Peptide text beside a SMILES is read from it. I, II: the chains in the order shown. Ethylenediamine = C(CN[*:2])N[*:1]; Suc = O=C(CCC(=O)[*:2])[*:1]; Ahx = NCCCCCC(=O)O
Tests used:
[1] = system: PC12 cell line; experiment: Cellular model of Parkinson's disease (MPTP, MTT test); type: cell-based, rat; conditions: added 24 hours prior to MPTP 1 mM
Protocol: To produce a model for Parkinson's disease, MPTP was used at a final concentration of 1 mM (Shimoke K., Chiba H. Nerve growth factor prevents 1-methyl-[…]-1,2,3,6-tetrahydropyridine-induced cell death via the Akt pathway by suppressing caspase-3-like activity using PC12 cells: relevance to therapeutic application for Parkinson's disease. J. Neurosci. Res. 2001, 63, 402-409). MPTP was added to the cell growth medium containing 1% FBS at 24 hours after passage. The peptides were added to the cell growth medium concurrently with MPTP or 24 h before MPTP. Cell viability was determined at 24 h using an MTT test.

[2] = system: Hsp70; experiment: Western blot of Hsp70 in HT-22 cells; type: cell-based, mouse; conditions: for amount of Hsp70: 24 h after addition, GK-1, GK-2 10^−8 and 10^−5 M, GK-3 10^−6 M, GK-4 10^−7 M, GK-5 10^−6 M
Protocol: (§1) The amount of Hsp70, Hsp32 and pTrkA was determined in the cytoplasmic fraction of HT-22 neuronal cells. For heat shock proteins, a test compound was added to the culture 24 hours prior to testing, before the cells were washed off the culture liquid with PBS. For pTrkA, a test compound was added to the culture immediately prior to the cell lysis just for 1 or 2 min, before the cells were washed off the culture liquid with PBS. Then the cells were mixed with the lysis buffer (50 mM Tris-HCl, 5 mM EDTA, 1 mM DTT, 1% Triton X-100, pH 7.5) at 4° C. and lysed for 5 min, then scraped off, transferred into a 1.5 ml centrifuge tube and centrifuged at 13000 rpm and 4° C. for 10 min. The supernatant containing cytosolic proteins was assayed by electrophoresis and immunoblotting. Proteins were separated on a 10% polyacrylamide gel (PAAG) and transferred from PAAG onto a PVDF membrane by electroelution for 45 min. Western blots were pre-incubated for 1 h in a TBST solution containing 1% Tween-20 and supplemented with 5% (w/v) skim milk. Western blots were then incubated with the primary polyclonal anti-Hsp32 antibody diluted 1:1000 or primary monoclonal anti-Hsp70 antibody diluted 1:1000 or primary monoclonal anti-phosphorylated tyrosine kinase A antibody diluted 1:1000 for 1 hour. Then the blots were washed and incubated with a secondary antibody conjugated to horseradish peroxidase (diluted 1:2000) for 1 hour. The detection of Hsp70, Hsp32 and pTrkA was carried out by the ECL reaction on a Kodak film.

[3] = system: PC12 cells; experiment: Differentiation of PC12 cells and modulation of the differentiation-inducing activity of NGF; type: cell-based, rat; conditions: for distance of branching points of the longest processes from the cell body / length of the longest processes: peptide + NGF (GK-3 10^−6 M, GK-4 10^−7 M, GK-5 10^−6 M)
Protocol: The rat adrenal […] pheochromocytoma cell line PC12 was obtained from the Cell Culture Museum, RAN Institute of Molecular Genetics. The immortalized mouse hippocampal cell line HT-22 was a gift from Prof. F. Viegant, Utrecht University, the Netherlands.
At the time of plating, either NGF (100 ng/ml, positive control) or a test compound was added to a final concentration of 10^−5 to 10^−9 M in the growth medium. Thereafter, the test peptides and NGF were added to the medium every 24 hours in one series of experiments and every 48 hours in another series, for a total of 6 days. The extent of cell differentiation was estimated on the basis of the shape and size of the cells and the number and length of the processes.
NGF was used as a positive control at a final concentration of 100 ng/ml.

[4] = system: HT-22 cells; conditions: added 24 hours prior to glutamate
Protocol: The determination of cell viability was carried out by MTT test. MTT is a water soluble tetrazolium salt of yellow color which readily permeates cells. In living cells, MTT is converted into water insoluble formazan crystals of violet color. At the end of an experiment the growth medium was replaced with an MTT solution (0.5 mg/ml) and incubated for 30 min at 37° C. and 5% CO2. The MTT solution was then removed from the wells and DMSO was added to dissolve the formazan precipitate. Then the optical density was measured using a Multiscan (Thermo) spectrophotometer at a wavelength of 600 nm.

[5] = system: Hsp32; experiment: Western blot of Hsp32 in HT-22 cells; type: cell-based, mouse; conditions: for amount of Hsp32: 24 h after addition, GK-1, GK-2 10^−8 and 10^−5 M, GK-3 10^−6 M, GK-4 10^−7 M, GK-5 10^−6 M
Protocol: as §1

[6] = system: HT-22 cells; experiment: Oxidative stress (H2O2) model in cultured HT-22 cells (MTT test); type: cell-based, mouse; conditions: for Optical density (MTT): 24 h before H2O2; for neuronal survival under oxidative stress: added 24 hours prior to the stress exposure, 10^−8 M to 10^−5 M
Protocol: To induce an oxidative stress, the cells were placed in a growth medium containing 5% FBS, then a freshly prepared H2O2 solution was added to a final concentration of 1.5 mM and incubated for 30 min at 37° C. and 5% CO2. Thereafter, the medium was replaced with a new one and the cells were cultured for 4 h under the same conditions.
The determination of cell viability was carried out by MTT test. […] At the end of an experiment the growth medium was replaced with an MTT solution (0.5 mg/ml) and incubated for 30 min at 37° C. and 5% CO2. The MTT solution was then removed from the wells and DMSO was added to dissolve the formazan precipitate. Then the optical density was measured using a Multiscan (Thermo) spectrophotometer at a wavelength of 600 nm.

[7] = target: T1, tyrosine kinase A (TrkA) (Mus musculus, UniProt Q3UFB7); experiment: Tyrosine kinase A phosphorylation in HT-22 cells (Western blot); type: cell-based; conditions: first minute of exposure
T1 construct: phosphorylation of tyrosine kinase A in cultured hippocampal neuronal cell line HT22; endogenous in cells; host or cells: HT-22 hippocampal neuronal cell line
T1 sequence (Q3UFB7 34-799): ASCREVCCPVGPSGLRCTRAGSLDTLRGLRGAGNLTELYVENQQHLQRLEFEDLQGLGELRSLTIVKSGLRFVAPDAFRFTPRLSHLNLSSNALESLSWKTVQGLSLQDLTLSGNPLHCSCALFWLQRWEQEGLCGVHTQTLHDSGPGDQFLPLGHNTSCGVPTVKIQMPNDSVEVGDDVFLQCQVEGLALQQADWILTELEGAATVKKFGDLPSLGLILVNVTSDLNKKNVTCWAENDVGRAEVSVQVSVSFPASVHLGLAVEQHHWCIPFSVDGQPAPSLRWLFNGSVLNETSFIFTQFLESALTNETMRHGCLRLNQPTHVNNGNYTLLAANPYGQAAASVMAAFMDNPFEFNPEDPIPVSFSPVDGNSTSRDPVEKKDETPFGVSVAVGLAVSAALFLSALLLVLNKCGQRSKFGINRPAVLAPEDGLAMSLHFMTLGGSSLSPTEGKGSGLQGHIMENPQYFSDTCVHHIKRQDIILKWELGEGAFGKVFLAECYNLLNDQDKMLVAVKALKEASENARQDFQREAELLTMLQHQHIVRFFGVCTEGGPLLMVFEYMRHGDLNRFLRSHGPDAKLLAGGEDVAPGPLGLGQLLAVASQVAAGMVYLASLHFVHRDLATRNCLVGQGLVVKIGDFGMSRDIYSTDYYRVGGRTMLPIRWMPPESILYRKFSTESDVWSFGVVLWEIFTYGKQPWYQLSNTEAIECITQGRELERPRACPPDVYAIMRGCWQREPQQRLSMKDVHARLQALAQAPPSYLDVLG
Protocol: as §1

[8] = system: Balb/c mice; experiment: Behavioral despair test according to Porsolt; type: in vivo, mouse; conditions: GBK-201 at 0.01 and 0.1 mg/kg i.p., 24 h before the test
Protocol: In order to detect a potential antidepressant activity of the peptide BDNF mimetics, the behavioral despair test was used in the original version (Porsolt R. D., Anton G., Blavet N., Jalfre M. Behavioral despair in rats: a new model sensitive to antidepressants. European Journal of Pharmacology, 1978, 47, 379-391).
For these experiments, male Balb/c mice weighing 20-22 g were used. On day 1, the animals were placed in a narrow vessel filled with water at 22° C. for 10 min. 60 min later a test compound was administered intraperitoneally (GSB-106 at 1 mg/kg, GBK-108 and GBK-201 at 0.01, 0.1, 1.0, 10.0 mg/kg). 24 hours later the animals were placed again in the same conditions to record the retention time of the characteristic immobile posture (abandoning any active defensive and exploratory behavior) for a 5 min test period. Imipramine was administered 60 min prior to the 5 min test period (on day 2). The control groups were treated with distilled water. Each experimental group comprised at least 6 mice.

[9] = GK-1 10^−5 M added 30 minutes before GK-2

level of phosphorylated tyrosine kinase A [7] | Compound | protective effect against MPTP [1] | amount of Hsp70 [2] | distance of branching points of the longest processes from the cell body [3] | length of the longest processes [3] | amount of Hsp32 [5] | neuronal survival under oxidative stress [6] | also measured
 | CC(=O)NC(CCCCN)C(=O)NC(CCC(=O)O)C(=O)NCCCCCCNC(=O)C(CCC(=O)O)NC(=O)C(CCCCN)NC(C)=O (stereo not drawn) [GK-4, bis-(N-acetyl-lysyl-glutamic acid) hexamethylenediamide] | protective effect | significant increase | 20 μm | 65 μm | no effect on Hsp32 |  | Max. length of cell processes, μm on day 6 ([3]; 10^−6M + NGF 30 ng/ml): 67 ± 4.5′ μm; Max. length of cell processes, μm on day 6 ([3]; 10^−6M + NGF 50 ng/ml): 73 ± 9.5′ μm; Max. length of cell processes, μm on day 6 ([3]; 10^−6M + NGF 100 ng/ml): 55 ± 11.3′ μm; Max. length of cell processes, μm on day 6 ([3]; 10^−7M + NGF 30 ng/ml): 52 ± 10.3′ μm; Max. length of cell processes, μm on day 6 ([3]; 10^−7M + NGF 50 ng/ml): 56 ± 13.2′ μm; Max. length of cell processes, μm on day 6 ([3]; 10^−7M + NGF 100 ng/ml): 65 ± 12.2′ μm; intercalary neurons in the differentiated cell population ([3]; GK-4 10^−7 M + NGF): 90%; protective effect against glutamate cytotoxicity [4]: protective effect
 | NCCCC[C@H](NC(=O)[C@H](CCC(=O)O)NC(=O)CCC(=O)O)C(=O)NCCCCCC(=O)NCCCNC(=O)CCCCCNC(=O)[C@H](CCCCN)NC(=O)[C@H](CCC(=O)O)NC(=O)CCC(=O)O [GK-2a, bis-(N-monosuccinyl-glutamyl-lysyl-6-aminohexanoic acid) trimethylenediamide] | protective effect |  |  |  |  | improved the neuronal survival | Optical density (MTT) ([6]; Table 1.5, 10^−5M, control 0.1275 ± 0.021, H2O2 0.087 ± 0.006): 0.108 ± 0.019^; Optical density (MTT) ([6]; Table 1.5, 10^−6M, control 0.1275 ± 0.021, H2O2 0.087 ± 0.006): 0.429 ± 0.02; Optical density (MTT) ([6]; Table 1.5, 10^−7M, control 0.1275 ± 0.021, H2O2 0.087 ± 0.006): 0.449 ± 0.024; Optical density (MTT) ([6]; Table 1.5, 10^−8M, control 0.1275 ± 0.021, H2O2 0.087 ± 0.006): 0.106 ± 0.028
 | NCCCCCC(=O)NCC(=O)N[C@@H](CCCCN)C(=O)NCCCCCCNC(=O)[C@H](CCCCN)NC(=O)CNC(=O)CCCCCN [GK-6, bis-(N-(6-aminocaproyl)glycyl-lysine) hexamethylenediamide] |  |  |  |  |  | improved the neuronal survival | 
increased | NCCCCCC(=O)NCC(=O)N[C@@H](CCCCN)C(N)=O [GK-5, N-(6-aminocaproyl)-glycyl-lysine amide] (H-[Ahx]-Gly-Lys-NH2) | inactive | no effect on Hsp70 | not different | 55 μm | increase in the synthesis of Hsp32 | improved the neuronal survival | differentiation of PC-12 cells ([3]; peptide alone, 10^−8 to 10^−5 M, NGF 100 ng/ml as positive control): differentiation-promoting effect at 10^−6 M and 10^−5 M; Optical density (MTT) ([6]; Table 1.8, 10^−5M, control 0.097 ± 0.009, H2O2 0.056 ± 0.009): 0.065 ± 0.008; Optical density (MTT) ([6]; Table 1.8, 10^−6M, control 0.097 ± 0.009, H2O2 0.056 ± 0.009): 0.066 ± 0.008^; Optical density (MTT) ([6]; Table 1.8, 10^−7M, control 0.097 ± 0.009, H2O2 0.056 ± 0.009): 0.062 ± 0.009; Optical density (MTT) ([6]; Table 1.8, 10^−8M, control 0.097 ± 0.009, H2O2 0.056 ± 0.009): 0.058 ± 0.007
decreased | NCCCC[C@H](NC(=O)[C@H](CCC(=O)O)NC(=O)CCC(=O)O)C(N)=O [GK-1, N-monosuccinyl-glutamyl-lysine amide] (Suc-Glu-Lys-NH2) |  | no effect |  |  | no effect | impaired the neuronal survival | amount of Hsp70 induced by GK-2 [2, 9]: no increase; decrease of the differentiation-promoting effect of NGF ([3]; GK-1 10^−5 M, counting differentiated and undifferentiated cells): 50%; amount of Hsp32 induced by GK-2 [5, 9]: no increase; effect on the neuroprotective effect of GK-2 [6, 9]: eliminated the neuroprotective effect of GK-2
 | CSCC[C@H](NC(=O)[C@H](CC(=O)O)NC(C)=O)C(N)=O [GBK-201, N-acetyl-aspartyl-methionine amide] (Ac-Asp-Met-NH2) |  |  |  |  |  |  | immobility time [8]: increased the immobility time
 | NCCCC[C@H](NC(=O)[C@H](CCC(=O)O)NC(=O)CCC(=O)O)C(=O)NCCNC(=O)[C@H](CCCCN)NC(=O)[C@H](CCC(=O)O)NC(=O)CCC(=O)O [GK-2e, bis-(N-monosuccinyl-glutamyl-lysine)ethylenediamide] (I: Suc-Glu-Lys / II: Suc-Glu-Lys; linker I:C-II:C via Ethylenediamine) |  |  |  |  |  | improved the neuronal survival | 
 | NCCCC[C@H](NC(=O)[C@H](CCC(=O)O)NC(=O)CCC(=O)O)C(=O)NCCCCCNC(=O)[C@H](CCCCN)NC(=O)[C@H](CCC(=O)O)NC(=O)CCC(=O)O [GK-2b, bis-(N-monosuccinyl-glutamyl-lysine)pentamethylenediamide] |  |  |  |  |  | improved the neuronal survival | 
increased | CC(=O)N[C@@H](CCCCN)C(=O)N[C@@H](CCC(=O)O)C(N)=O [GK-3, N-acetyl-lysyl-glutamic acid amide] (Ac-Lys-Glu-NH2) | protective effect | no effect on Hsp70 | 25 μm | not significantly different | small increase | improved the neuronal survival | Optical density (MTT) ([6]; Table 1.6, 10^−5M, control 0.111 ± 0.009, H2O2 0.093 ± 0.004): 0.109 ± 0.019; Optical density (MTT) ([6]; Table 1.6, 10^−6M, control 0.111 ± 0.009, H2O2 0.093 ± 0.004): 0.110 ± 0.014^; Optical density (MTT) ([6]; Table 1.6, 10^−7M, control 0.111 ± 0.009, H2O2 0.093 ± 0.004): 0.099 ± 0.014; Optical density (MTT) ([6]; Table 1.6, 10^−8M, control 0.111 ± 0.009, H2O2 0.093 ± 0.004): 0.091 ± 0.014

Source: US9683014B2, “Dipeptide mimetics of NGF and BDNF neurotrophins” (UCHREZHDENIE ROSSIISKOI AKADEMII MEDITSYNSKIKH NAUK …, priority 2009, dated 2017)
